Measured values taken from patent US20190359645A1, “2'3'-CYCLIC DINUCLEOTIDES COMPRISING CARBOCYCLIC NUCLEOTIDE” (Institute of Organic Chemistry and Biochemistry ASCR, V.V.I., priority 2018, published 2019).

Tests used:
[1] = target: T1, AQ STING (G230A-R293Q) (Homo sapiens, UniProt Q86WV6, G230A/H232R/R293Q); assay: Differential scanning fluorimetry (DSF) with AQ STING; type: binding; conditions: thermal shift, truncated human AQ STING 0.1 mg/ml, 150 μM CDN; for ΔTm at 150 µM: read-out: DSF ΔTm AQ STING
T1 construct: truncated human WT STING or AQ STING (amino acid residues 140-343); 8xHis (N, cleaved yes); SUMO (N, cleaved yes); made in house; host or cells: E. coli Rosetta-gami B (DE3)
Source text: (§1) Both WT and AQ human STING (G230A-R^293Q) cDNA were amplified by the use of PCR (Phusion® High-Fidelity DNA Polymerase, cat. # M0530S, NEB, Ipswich, USA) using oligonucleotides hSTING140-BamH-For ([…]) (SEQ ID NO:5) and hSTING379-Not-Rev3 ([…]) (SEQ ID NO:6) from pUNOI-hSTING-WT (cat. # punol-hstingwt, InvivoGen, San Diego, USA) and pUNO1-hSTING-HAQ plasmids (punol-hsting-haq, InvivoGen, San Diego, USA). Purified PCR products were cleaved with restriction enzymes BamHI (cat. # R^0136S, NEB, Ipswich, USA) and NotI (cat. # R^0189S, NEB, Ipswich, USA) and cloned into the pSUMO vector linearized with the identical enzymes. Plasmid pSUMO was created by introducing 8-His-SUMO sequence between NdeI and BamHI sites of pHis-parallel2 plasmid (Clontech, Moutain View, USA). pSUMO-STING WT or pSUMO-STING AQ plasmids thus encoded truncated human WT STING or AQ STING (amino acid residues 140-343) with N-terminal 8×His and SUMO tag.
(§2) The recombinant WT STING and AQ STING proteins were overexpressed in Rosetta-gami B (DE3) competent cells (cat. #71136-3, Merck Millipore, Billerica, USA). Bacterial pellets were re-suspended in ice-cold lysis buffer containing 50 mmol·l^−1 TrisCl (cat. # T1503, Sigma Aldrich, Czech Republic) pH 8.0, 300 mmol·l^−1 NaCl, 3 mmol·l^−1 (3-mercaptoethanol (cat. # M6250, Sigma Aldrich, Czech Republic), 10% glycerol (cat. #G5516, Sigma Aldrich, Czech Republic) and 20 mmol·l^−1 imidazole (cat. #15513, Sigma Aldrich, Czech Republic) using Dounce homogenizer. DNase I (cat. # D5025, Sigma Aldrich, Czech Republic) and RNase A (cat. # R^6513, Sigma Aldrich, Czech Republic) were added (final concentration 50 μg/ml) together with MgCl2 (final concentration 5 mmol·l^−1) to the homogenate and bacteria were lysed using French Press G-M™ High-Pressure Cell Press Homogenizer (1500 psi, 3 cycles). Lysate was spun 30,000 g for 20 minutes and supernatant was gently stirred with Ni-NTA resin (cat. #745400.25 Macherey-Nagel, Duren, Germany) for 30 minutes. The resin was poured into a chromatography column, washed with 50 ml buffer A (50 mmol·l^−1 TrisCl (pH 8.0), 800 mmol·l^−1 NaCl, 3 mmol·l^−1β-mercaptoethanol; 10% glycerol; 20 mmol·l^−1 imidazole) and 8-His-SUMO tagged STING proteins were eluted with 15 ml buffer A containing 300 mmol·l^−1 imidazole. The eluted proteins were cleaved with recombinant SUMO protease (80 pig/ml of protein solution, cat. #12588018, ThermoFisher, Waltham, USA). The proteins were further purified by size exclusion chromatography using HiLoad 16/60 Superdex 75 (cat. #28989333, GE Healthcare Bio-Sciences, Pittsburgh, USA) in 50 mmol·l^−1 Tris C1 buffer pH 7.4 containing 150 mmol·l^−1 NaCl, and 10% glycerol. Proteins were concentrated with Amicon® Ultra-15 10 K device (cat. # UFC901008, Merck Millipore, Billerica, USA) and flash frozen in liquid N2.
(§3) WT and AQ allelic forms of STING protein were diluted to the final concentration 0.1 mg/ml in 100 mmol·l^−1 TrisCl buffer pH 7.4 containing, 150 mmol·l^−1 NaCl, 1:500 SYPRO Orange (cat. # S6650, ThermoFisher, Waltham, USA) and 150 μM CDN or water. 20 μL solutions of the reaction mixtures were pipetted in triplicates into 96 well optical reaction plates and thermal denaturation of samples were performed on real time PCR cycler (LightCycler® 480 Instrument II—Roche, Basel, Switzerland). The first derivative of the thermal denaturation curves was performed to calculate denaturing temperatures of STING-CDN complexes and STING apoproteins. The thermal shift for each CDN was calculated by subtracting the average denaturing temperature of STING apoprotein from the average denaturing temperature of STING CDN complex.

[2] = target: WT STING (Homo sapiens, UniProt Q86WV6, H232R); assay: Differential scanning fluorimetry (DSF) with WT STING; type: binding; parameters: truncated human WT STING or AQ STING (amino acid residues 140-343); 8xHis (N, cleaved yes); SUMO (N, cleaved yes); made in house; host or cells: E. coli Rosetta-gami B (DE3); conditions: thermal shift, truncated human WT STING 0.1 mg/ml, 150 μM CDN; for ΔTm at 150 µM: read-out: DSF ΔTm WT STING
Source text: as §1, §2, §3

T1 sequence (Q86WV6 140-343 G230A/H232R/R293Q): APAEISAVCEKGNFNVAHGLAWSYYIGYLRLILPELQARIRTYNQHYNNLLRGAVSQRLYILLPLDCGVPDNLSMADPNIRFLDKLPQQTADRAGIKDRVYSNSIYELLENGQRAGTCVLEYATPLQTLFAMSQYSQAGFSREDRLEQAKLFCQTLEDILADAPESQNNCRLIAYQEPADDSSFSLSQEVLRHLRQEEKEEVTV
WT STING, sequence (Q86WV6 140-343 H232R): as the sequence (Q86WV6 140-343 G230A/H232R/R293Q) above, with A91G, Q154R counted along it

| DSF ΔTm AQ STING [1] | DSF ΔTm WT STING [2] | ΔTm at 150 µM [1] | ΔTm at 150 µM [2] | Compound |
| --- | --- | --- | --- | --- |
| 17.0 °C | 9.4 °C | – | – | Nc1ncnc2c1ncn2[C@@H]1O[C@@H]2COP(=O)(O)OC3C(O)[C@@H](COP(=O)(O)OC2C1O)C[C@H]3n1cnc2c(=O)[nH]cnc21 (stereo partly drawn) [Compound 121, (6R,8R,15R,17R)-8-(6-amino-9H-purin-9-yl)-3,9,12,18-tetrahydroxy-17-(6-oxo-6,9-dihydro-1H-purin-9-yl)-2,4,7,11,13-pentaoxa-3λ^5,12λ^5-diphosphatricyclo[13.2.1.0^6,10]octadecane-3,12-dione] |
| – | – | 14.6 °C | 6.7 °C | Nc1ncnc2c1ccn2[C@@H]1O[C@@H]2COP(=O)(O)OC3C(O)[C@@H](COP(=O)(O)OC2C1O)C[C@H]3n1cnc2c(=O)[nH]cnc21 (stereo partly drawn) [Compound 122, (6R,8R,15R,17R)-8-{4-amino-7H-pyrrolo[2,3-d]pyrimidin-7-yl}-3,9,12,18-tetrahydroxy-17-(6-oxo-6,9-dihydro-1H-purin-9-yl)-2,4,7,11,13-pentaoxa-3λ^5,12λ^5-diphosphatricyclo[13.2.1.0^6,10]octadecane-3,12-dione] |
| – | – | 12.1 °C | 6.3 °C | Cc1cn([C@@H]2O[C@@H]3COP(=O)(O)OC4C(O)[C@@H](COP(=O)(O)OC3C2O)C[C@H]4n2cnc3c(=O)[nH]cnc32)c2ncnc(N)c12 (stereo partly drawn) [Compound 123, (6R,8R,15R,17R)-8-{4-amino-5-methyl-7H-pyrrolo[2,3-d]pyrimidin-7-yl}-3,9,12,18-tetrahydroxy-17-(6-oxo-6,9-dihydro-1H-purin-9-yl)-2,4,7,11,13-pentaoxa-3λ^5,12λ^5-diphosphatricyclo[13.2.1.0^6,10]octadecane-3,12-dione] |
| – | – | 11.3 °C | 5.6 °C | Nc1ncnc2c1c(I)cn2[C@@H]1O[C@@H]2COP(=O)(O)OC3C(O)[C@@H](COP(=O)(O)OC2C1O)C[C@H]3n1cnc2c(=O)[nH]cnc21 (stereo partly drawn) [Compound 124, (6R,8R,15R,17R)-8-{4-amino-5-iodo-7H-pyrrolo[2,3-d]pyrimidin-7-yl}-3,9,12,18-tetrahydroxy-17-(6-oxo-6,9-dihydro-1H-purin-9-yl)-2,4,7,11,13-pentaoxa-3λ^5,12λ^5-diphosphatricyclo[13.2.1.0^6,10]octadecane-3,12-dione] |
| – | – | 11.4 °C | 4.2 °C | CSc1ncnc2c1ncn2[C@@H]1O[C@@H]2COP(=O)(O)OC3C(O)[C@@H](COP(=O)(O)OC2C1O)C[C@H]3n1cnc2c(=O)[nH]cnc21 (stereo partly drawn) [Compound 125, (1S,6R,8R,9R,10S,15R,17R,18R)-3,9,12,18-tetrahydroxy-8-[16-(methylsulfanyl)-9H-purin-9-yl]-17-(6-oxo-6,9-dihydro-1H-purin-9-yl)-2,4,7,11,13-pentaoxa-3λ^5,12λ^5-diphosphatricyclo[13.2.1.0^6,10]octadecane-3,12-dione] |
| – | – | 15.8 °C | 8.4 °C | Nc1ncnc2c1ncn2[C@@H]1O[C@@H]2COP(=O)(O)O[C@@H]3[C@@H](F)[C@@H](COP(=O)(O)O[C@H]2[C@H]1O)C[C@H]3n1cnc2c(=O)[nH]cnc21 [Compound 126, (1S,6R,8R,9R,10S,15R,17R,18S)-8-(6-amino-9H-purin-9-yl)-18-fluoro-3,9,12-trihydroxy-17-(6-oxo-6,9-dihydro-1H-purin-9-yl)-2,4,7,11,13-pentaoxa-3λ^5,12λ^5-diphosphatricyclo[13.2.1.0^6,10]octadecane-3,12-dione] |
| – | – | 16.8 °C | 8.2 °C | Nc1ncnc2c1ncn2[C@@H]1O[C@@H]2COP(=O)(O)O[C@@H]3[C@H](F)[C@@H](COP(=O)(O)O[C@H]2[C@H]1F)C[C@H]3n1cnc2c(=O)[nH]cnc21 [Compound 127] |
